Assays:
[1] = test system: histone deacetylase (HDAC); test: HDAC Fluorescent Activity Assay/Drug Discovery Kit (Biomol) with nuclear extracts of HeLa cell as HDAC source; assay type: biochemical; details: compounds 0.01 to 10 μM, 25° C., 20 minutes, fluorescence
Procedure: Fluorogenic Histone Deacetylase Lysyl Substrate was used as substrate for HDAC and the test is based on the fact that the removal of acetyl group by HDAC activity causes the substrate to occur emmition wavelength in the ranging from 360 nm to 460 nm.
Various concentrations of the compounds of the present invention ranging from 0.01 to 10 μM were reacted with HDAC enzyme at 25° C. for 20 minutes and equal volume of developer was added thereto. The fluorescence signal was detected at the wavelength in the range 350 to 460 nm using by fluorescence spectrometer.

PC-3 cells = test: Tumor cell growth inhibition, sulforhodamine B (SRB) staining; assay type: cell-based; details: PC-3 human prostatic carcinoma cells, 48 hrs, absorbance 540 nm, adriamycin as positive control
Procedure: PC-3 cells (ATCC, US), human prostatic carcinoma cell line, were cultured in RMPI 1640 supplemented with 10% fetal bovine serum.
Appropriate concentrations of cells (5×10^4 cells/ml) cultured in RMPI 1640 supplemented with 5% fetal bovine serum were poured into 96-well plate and incubated at 37° C. in 5% CO2 condition. The day after the incubation, PC-3 cells were fixed on Time zero (T0) plate by adding 50 μl/well of 50% trichloroacetic acid and the cell concentration was set to zero point by fixing the cells. In the cells treated with test samples, 50% TCA was added to each wells in 50 ul/well after 48 hrs to fix the cells. The final concentration of adding test compounds were 0.01, 0.03, 0.1, 0.3, 1 μg/ml respectively. Then, each fixed plate was washed, dried and 100 μl/well of 0.4% reaction solution containing sulforhodamine B (SRB) reagent dissolved in 0.1% acetic acid was added thereto to stain the cells. 30 minutes later, the cell was washed with 0.1% acetic acid, dried at room temperature, and 10 mM of TRIS base (pH 10.5) was added thereto to dissolve the staining agent. Finally, the absorbance detected at 540 nm was measured and the value was conversed into percentage comparing with that of control group. IC50 (μg/ml), the concentration of the group required to inhibit the cancer cell growth by 50%, was calculated from the data (AA: IC50's<1, A: IC50's<5, B: IC50's<10 and C: IC50's>10). Also, the inhibiting activity of cell growth was expressed as various symbols in accordance with the potency of examples e.g., AA: closely equivalent (1˜2 times), A: slightly weaker (3˜5 times), B: weaker (5˜10 times), C: very weaker (more than 10 times) than that of adriamycin used as a positive control group.

IC50 (PC-3 cells) [µg/mL] | Compound | other results
< 5 | O=C(CCC1=CCN(CCCc2ccccc2)C1=O)NO [Example 4, N-hydroxy-3-[2-oxo-1-(3-phenyl-propyl)-2,5-dihydro-1H-pyrrol-3-yl]-propionamide] | HDAC inhibition [1]: AAA
< 10 | COc1ccc(CCCN2CC=C(CCC(=O)NO)C2=O)cc1 [Example 46, N-hydroxy-3-{1-[3-(4-methoxy-phenyl)-propyl]-2-oxo-2,5-dihydro-1H-pyrrol-3-yl]-propionamide] | 
< 5 | O=C(CCC1=CCN(Cc2ccc3ccccc3c2)C1=O)NO [Example 49, N-hydroxy-3-(1-naphthalene-2-ylmethyl-2-oxo-2,5-dihydro-1H-pyrrol-3-yl)-propionamide] | 
< 1 | CN1CC=C(CCC(=O)NO)C1=O [Example 50, N-hydroxy-3-(1-methyl-2-oxo-2,5-dihydro-1H-pyrrol-3-yl)-propionamide] | 
> 10 | C=CCN1CC=C(CCC(=O)NO)C1=O [Example 51, 3-(1-allyl-2-oxo-2,5-dihydro-1H-pyrrol-3-yl)-N-hydroxy-propionamide] | 
< 1 | O=C(CCC1=CCN(CCc2ccc3ccccc3c2)C1=O)NO [Example 53, N-hydroxy-3-[1-(2-naphthalene-2-yl-ethyl)-2-oxo-2,5-dihydro-1H-pyrrol-3-yl]-propionamide] | 
< 5 | O=C(CCC1=CCN(CCc2cccs2)C1=O)NO [Example 54, N-hydroxy-3-[2-oxo-1-(2-thiophen-2-yl-ethyl)-2,5-dihydro-1H-pyrrol-3-yl]-propionamide] | 
< 1 | O=C(CCC1=CCN(CCCc2ccc(-c3ccccc3)cc2)C1=O)NO [Example 55, 3-[1-(3-biphenyl-4-yl-propyl)-2-oxo-2,5-dihydro-1H-pyrrol-3-yl]-N-hydroxy-propionamide] | 
 | O=C(CCC1=CCN(CCCc2ccc3ccccc3c2)C1=O)NO [Example 56, N-hydroxy-3-[1-(3-naphthalene-2-yl-propyl)-2-oxo-2,5-dihydro-1H-pyrrol-3-yl]-propionamide] | Cell growth inhibition (PC-3 cells): AAA
< 1 | COc1ccc(CN2CCC=C(CCC(=O)NO)C2=O)c(OC)c1 [Example 57, 3-[1-(2,4-dimethoxybenzyl)-2-oxo-1,2,5,6-tetrahydro-pyridin-3-yl]-N-hydroxy-propionamide] | 
< 10 | O=C(CCC1=CCCN(Cc2ccccc2)C1=O)NO [Example 58, N-hydroxy-3-(1-benzyl-2-oxo-1,2,5,6-tetrahydro-pyridin-3-yl)-propionic acid] | 
< 10 | O=C(CCC1=CCCN(Cc2ccc([N+](=O)[O-])cc2)C1=O)NO [Example 59, N-hydroxy-3-[1-(4-nitro-benzyl)-2-oxo-1,2,5,6-tetrahydro-pyridin-3-yl)-propionamide] | 
< 10 | O=C(CCC1=CCCN(CCc2ccccc2)C1=O)NO [Example 60] | 
> 10 | COc1ccc(CN2CCC=C(CCC(=O)O)C2=O)c(OC)c1 [Example 63, 3-[1-(2,4-dimethoxybenzyl)-2-oxo-1,2,5,6-tetrahydro-pyridin-3-yl)-propionic acid] | 
> 10 | O=C(O)CCC1=CCCN(Cc2ccccc2)C1=O [Example 64, 3-(1-benzyl-2-oxo-1,2,5,6-tetrahydro-pyridin-3-yl)-propionic acid] | 
> 10 | O=C(O)CCC1=CCCN(Cc2ccc([N+](=O)[O-])cc2)C1=O [Example 65, 3-[1-(4-nitro-benzyl)-2-oxo-1,2,5,6-tetrahydro-pyridin-3-yl)-propionic acid] | 
> 10 | O=C(CCC1=CCCN(Cc2ccccc2)C1=O)Nc1ccccn1 [Example 69, 3-(1-benzyl-2-oxo-1,2,5,6-tetrahydro-pyridin-3-yl)-N-pyridin-2-yl-propionamide] | 
> 10 | O=C(CCC1=CCCN(CCc2ccccc2)C1=O)NOCc1ccccc1 [Example 73, N-benzyloxy-3-(2-oxo-1-phenethyl-1,2,5,6-tetrahydro-pyridin-3-yl)-propionamide] | 

IC50 (PC-3 cells) [µg/mL] | Compound | other results
> 10 | CC(=O)Nc1ccc(CN2CCC=C(CCC(=O)NO)C2=O)cc1 [Example 74, 3-[1-(4-acetylamino-benzyl)-2-oxo-1,2,5,6-tetrahydro-pyridin-3-yl)-N-hydroxy-propionamide] | 
< 10 | O=C(CCC1=CCCN(Cc2ccc(NC(=O)c3ccccc3)cc2)C1=O)NO [Example 75, N-4-[5-(2-hydroxycarbamoyl-ethyl)-6-oxo-3,6-dihydro-2-pyridin-1-yl-methyl]-phenyl-benzamide] | 
> 10 | CS(=O)(=O)N(c1ccc(CN2CCC=C(CCC(=O)NO)C2=O)cc1)S(C)(=O)=O [Example 76, N-hydroxy-3-[1-(4-dimethylsulfonylamino-benzyl)-2-oxo-1,2,5,6-tetrahydro-pyridin-3-yl]-propionamide] | 
< 5 | Cc1ccc(S(=O)(=O)Nc2ccc(CN3CCC=C(CCC(=O)NO)C3=O)cc2)cc1 [Example 77, N-hydroxy-3-2-oxo-1-[4-(toluene-4-sulfonylamino)-benzyl-1,2,5,6-tetrahydro-pyridin-3-yl]-propionamide] | 
> 10 | O=C(CCC1CCCN(CCc2ccccc2)C1=O)NO (stereo not drawn) [Example 81, N-hydroxy-3-(2-oxo-1-phenethyl-piperidine-3-yl)-propionamide] | 
> 10 | COc1ccc(CN2CCC=C(CC(=O)NO)C2=O)c(OC)c1 [Example 82, 2-[1-(2,4-dimethoxy-benzyl)-2-oxo-1,2,5,6-tetrahydro-pyridin-3-yl]-N-hydroxy-acetamide] | 
> 10 | O=C(CC1=CCCN(Cc2ccccc2)C1=O)NO [Example 83, 2-(1-benzyl-2-oxo-1,2,5,6-tetrahydro-pyridin-3-yl)-N-hydroxy-acetamide] | 
> 10 | O=C(CC1=CCCN(CCCCc2ccccc2)C1=O)NO [Example 86, N-hydroxy-2-[2-oxo-1-(4-phenyl-butyl)-1,2,5,6-tetrahydro-pyridin-3-yl]-N-hydroxy-acetamide] | 
> 10 | COc1ccc(CN2CCCC(CC(=O)NO)C2=O)c(OC)c1 (stereo not drawn) [Example 92, 2-[1-(2,4-dimethoxy-benzyl)-2-oxo-piperidine-3-yl]-N-hydroxy-acetamide] | 
> 10 | COc1ccc(CN2CCC=C(CCCC(=O)NO)C2=O)cc1 [Example 95, 4-[1-(4-methoxy-benzyl)-2-oxo-1,2,5,6-tetrahydro-pyridin-3-yl]-N-hydroxy-butylamide] | 
> 10 | C=CCN1CCC=C(CCC(=O)NO)C1=O [Example 101, 3-(1-Allyl-2-oxo-1,2,5,6-tetrahydro-pyridin-3-yl)-N-hydroxy-propionamide] | 
> 10 | CN1CCC=C(CCC(=O)NO)C1=O [Example 102, N-hydroxy-3-(1-methyl-2-oxo-1,2,5,6-tetrahydro-pyridin-3-yl)-propionamide] | 
< 10 | O=C(CCC1=CCCN(Cc2ccc3ccccc3c2)C1=O)NO [Example 103, N-hydroxy-3-(1-(naphthalene-2-yl-methyl)-2-oxo-1,2,5,6-tetrahydro-pyridin-3-yl)-propionamide] | 
< 10 | O=C(CCC1=CCCN(CCc2cccs2)C1=O)NO [Example 104, N-hydroxy-3-[2-oxo-1-(2-thiophen-2-yl-ethyl)-1,2,5,6-tetrahydro-pyridin-3-yl]-propionamide] | 
> 10 | O=C(CCC1=CCCCN(Cc2ccccc2)C1=O)NO [Example 105, 3-(1-Benzyl-2-oxo-2,5,6,7-tetrahydro-1H-azepin-3-yl)-N-hydroxy-propionamide] | 
> 10 | O=C(CCC1=CCCCN(CCCc2ccccc2)C1=O)NO [Example 106, N-Hydroxy-3-[2-oxo-1-(3-phenyl-ethyl)-2,5,6,7-tetrahydro-1H-azepin-3-yl]-propionamide] | 
> 10 | O=C(CCC1=CCCCN(CCCCc2ccccc2)C1=O)NO [Example 108, N-Hydroxy-3-[2-oxo-1-(4-phenyl-butyl)-2,5,6,7-tetrahydro-1H-azepin-3-yl]-propionamide] | 

Source: US7723376B2, “2-oxo-heterocyclic compounds and pharmaceutical compositions” (Korea Research Institute of Bioscience and Biotechnology, priority 2003, dated 2010)
